Data on 2 compounds can be found in PubChem BioAssay AID2060906 (Molecular Pharmacology Branch, DTP, NCI, 2025).

This experiment relates to 485176-168-R4-J1-PDC complex spheroid growth. As to the kind of experiment: Anticancer human tumor 485176-168-R4-J1-PDC patient-derived pancreatic adenocarcinoma cell line growth inhibition [RAS]. The settings on record: for viability, T/C: stronger effect = lower value. In outline: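 Agents were tested in combination matrices in half-log decrements from a top concentration at or near clinical Cmax (10 microM if undetermined). Targets were multi-cell spheroids of tumour lines plus HUVEC and MSC stromal cells.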
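Also: spheroids exposed to compounds for seven days before readout.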
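For viability, T/C in this document: luminescence viability expressed relative to DMSO vehicle wells set as 100%.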

For `Nc1ccn(C2OC(CO)C(O)C2(F)F)c(=O)n1` (stereo not drawn) + C=CC(=O)N1CCN(c2nc(OCC3CCCN3C)nc3c(F)c(-c4nc(N)cc(C)c4C(F)(F)F)c(Cl)cc23)C(C)C1, the IC50 reads like this: (curve of first compound, second compound 0.00316 µM) 15 nM; (curve of first compound, second compound 0.01 µM) 16.8 nM; (curve of first compound, second compound 0.0316 µM) 17.5 nM; (curve of first compound, second compound 0.1 µM) 17.6 nM; (curve of first compound, second compound 0.316 µM) 13.7 nM; (curve of first compound, second compound 1 µM) 17.5 nM. Besides, the viability, T/C was 89.7% (second compound 0.00316 µM, first compound 0.00316 µM); 70.5% (second compound 0.00316 µM, first compound 0.01 µM); 12.2% (second compound 0.00316 µM, first compound 0.0316 µM); 7.74% (second compound 0.00316 µM, first compound 0.1 µM); 7.62% (second compound 0.00316 µM, first compound 0.316 µM); 8.54% (second compound 0.00316 µM, first compound 1 µM). In addition, the viability, T/C was 101% (second compound 0.01 µM, first compound 0.00316 µM); 81.4% (second compound 0.01 µM, first compound 0.01 µM); 11.6% (second compound 0.01 µM, first compound 0.0316 µM); 8.54% (second compound 0.01 µM, first compound 0.1 µM); 7.95% (second compound 0.01 µM, first compound 0.316 µM); 11.2% (second compound 0.01 µM, first compound 1 µM). Moreover, the viability, T/C is 84.2% (second compound 0.0316 µM, first compound 0.00316 µM); 86% (second compound 0.0316 µM, first compound 0.01 µM); 13% (second compound 0.0316 µM, first compound 0.0316 µM); 6.18% (second compound 0.0316 µM, first compound 0.1 µM); 9.67% (second compound 0.0316 µM, first compound 0.316 µM); 8.77% (second compound 0.0316 µM, first compound 1 µM). For the same compound, the viability, T/C is 96.1% (second compound 0.1 µM, first compound 0.00316 µM); 86.2% (second compound 0.1 µM, first compound 0.01 µM); 12.4% (second compound 0.1 µM, first compound 0.0316 µM); 9.42% (second compound 0.1 µM, first compound 0.1 µM); 8.72% (second compound 0.1 µM, first compound 0.316 µM); 8.42% (second compound 0.1 µM, first compound 1 µM). Besides, the viability, T/C by setting is: (second compound 0.316 µM, first compound 0.00316 µM) 98.1%; (second compound 0.316 µM, first compound 0.01 µM) 63.7%; (second compound 0.316 µM, first compound 0.0316 µM) 13.7%; (second compound 0.316 µM, first compound 0.1 µM) 7.48%; (second compound 0.316 µM, first compound 0.316 µM) 6.75%; (second compound 0.316 µM, first compound 1 µM) 9.71%. Also, the viability, T/C runs as follows: (second compound 1 µM, first compound 0.00316 µM) 103%; (second compound 1 µM, first compound 0.01 µM) 85.2%; (second compound 1 µM, first compound 0.0316 µM) 13%; (second compound 1 µM, first compound 0.1 µM) 8.41%; (second compound 1 µM, first compound 0.316 µM) 9.99%; (second compound 1 µM, first compound 1 µM) 10.3%.

For `Nc1ccn(C2OC(CO)C(O)C2(F)F)c(=O)n1` (stereo not drawn), the viability, T/C is 97.3% [middle of 4 runs] (compound 0.00316 µM); 17.7% [middle of 4 runs] (compound 0.0316 µM); 9.63% [middle of 4 runs] (compound 0.1 µM); 9.78% [middle of 4 runs] (compound 0.316 µM); 12.4% [middle of 4 runs] (compound 1 µM). In addition, the half-maximal inhibitory concentration (IC50) (curve of compound) is 16.7 nM [middle of 4 runs].

For orientation: IC50 means the concentration at which inhibition is half-maximal. As a reminder, the viability, T/C is the result in the treated group divided by that in the control group, in per cent.
